The source of these data is patent publication US20250352539A1, “COMBINATION THERAPY FOR TREATING CANCER” (AstraZeneca AB, priority 2022, published 2025).

Assay type in all cases: cell-based
One assay has as its system A549. Nature of the assay: 10-day Cell Titre Glo combination screen. To be noted: Homo sapiens; A549 lung; monotherapy; read-out: mono AC50. The source says: (§1) The Highest Single Agent (HSA) model is used to determine a combination's synergy score (and is based simply on the intuition that if a combination's effect exceeds the effect level of each of its constituents, there must be some combination interaction). Mathematically, the HSA model describes simple superposition of the single agent curves:
(§2) where CX,Y are the concentrations of the X and Y compound, and IX and IY are inhibitions of the single agents at CX,Y. It is also useful to calculate a volume score (HSA Volume) between the data and the HSA surface to characterise the overall strength of combination effects. Empirically derived combination matrices are compared to their respective HSA additivity models constructed from experimentally collected single agent dose response curves. Summation of this excess additivity across the dose response matrix is referred to HSA Volume.
(§3) Potency shifting can also be scored using combination index (CI). For a chosen iso-effect level (ICut), CI is calculated as: […]
(§4) where (CX/ECX) for a particular data point is the ratio of the X compound's measured concentration to its effective concentration at the chosen effect level. The CI is a rough estimate of how much drug was needed in combination relative to the single agent doses required to achieve the chosen effect level. CI values in the range of 0.5-0.7 are typical for in vitro measurements of current clinical combinations. The CI error (σCI) is calculated using standard error propagation through the CI calculation based on the isobologram errors.
(§5) This combination screen was a 10-day assay using Cell Titre Glo as the readout for viability.
(§6) The assay was performed in 384 well plates, with 1 cell line and 4 drug-drug combinations per plate dosed in a 6×6 matrix. A day zero reading was measured to determine growth inhibition. GenedataScreener was used to input the raw values for every well, and the software was programmed to normalise the values to the day zero and DMSO control values.
(§7) The CellTiter-Glo® Luminescent Cell Viability Assay is a homogeneous method to determine the number of viable cells in culture based on quantitation of the ATP present, which signals the presence of metabolically active cells. It relies on the properties of a proprietary thermostable luciferase (Ultra-Glo™ Recombinant Luciferase), which generates a stable “glow-type” luminescent signal and improves performance across a wide range of assay conditions.
(§8) The following information was reported: Synergy scores (HSA); combination index values; AC50 (half-maximal activity concentration) monotherapy values.

In a further assay the test system is CAL-120. Nature of the assay: 10-day Cell Titre Glo combination screen. To be noted: Homo sapiens; CAL-120 breast; monotherapy; read-out: mono AC50.
From the text: as §1, §2, §3, §4, §5, §6, §7, §8

The subject of another assay is DMS53. Nature of the assay: 10-day Cell Titre Glo combination screen. Conditions: Homo sapiens, DMS-53; DMS53 lung; monotherapy; read-out: mono AC50.
From the text: as §1, §2, §3, §4, §5, §6, §7, §8

Another assay has as its system EFM-19. Nature of the assay: 10-day Cell Titre Glo combination screen. To be noted: Homo sapiens; EFM-19 breast; monotherapy; read-out: mono AC50.
From the text: as §1, §2, §3, §4, §5, §6, §7, §8

A further assay relates to HCC1569. As to the kind of experiment: 10-day Cell Titre Glo combination screen. To be noted: Homo sapiens; HCC1569 breast; monotherapy; read-out: mono AC50.
From the text: as §1, §2, §3, §4, §5, §6, §7, §8

A further assay deals with MCF7 F100-16. As to the kind of experiment: 10-day Cell Titre Glo combination screen. Conditions: Homo sapiens; MCF7 F100-16 breast; monotherapy; read-out: mono AC50.
From the text: as §1, §2, §3, §4, §5, §6, §7, §8

A further assay concerns MDA-MB-468. As to the kind of experiment: 10-day Cell Titre Glo combination screen. Conditions: Homo sapiens; MDA-MB-468 breast; monotherapy; read-out: mono AC50.
From the text: as §1, §2, §3, §4, §5, §6, §7, §8

The next assay deals with NCI-H1373. As to the kind of experiment: 10-day Cell Titre Glo combination screen. Conditions: Homo sapiens; NCI-H1373 lung; monotherapy; read-out: mono AC50.
From the text: as §1, §2, §3, §4, §5, §6, §7, §8

Another assay relates to NCI-H1395. As to the kind of experiment: 10-day Cell Titre Glo combination screen. Conditions: monotherapy, read-out: mono AC50.
From the text: as §1, §2, §3, §4, §5, §6, §7, §8

In the next assay the test system is NCI-H2009. Nature of the assay: 10-day Cell Titre Glo combination screen. Conditions: Homo sapiens; NCI-H2009 lung; monotherapy; read-out: mono AC50.
From the text: as §1, §2, §3, §4, §5, §6, §7, §8

The test system of another assay is NCI-H2291. As to the kind of experiment: 10-day Cell Titre Glo combination screen. To be noted: Homo sapiens; NCI-H2291 lung; monotherapy; read-out: mono AC50.
From the text: as §1, §2, §3, §4, §5, §6, §7, §8

The next assay has as its system NCI-H23. As to the kind of experiment: 10-day Cell Titre Glo combination screen. To be noted: Homo sapiens; NCI-H23 lung; monotherapy; read-out: mono AC50.
From the text: as §1, §2, §3, §4, §5, §6, §7, §8

The next assay deals with NCI-H522. Nature of the assay: 10-day Cell Titre Glo combination screen. Conditions: Homo sapiens; NCI-H522 lung; monotherapy; read-out: mono AC50.
From the text: as §1, §2, §3, §4, §5, §6, §7, §8

For a further assay, the system named is SUM52PE. Nature of the assay: 10-day Cell Titre Glo combination screen. Conditions: SUM52PE breast; monotherapy; read-out: mono AC50.
From the text: as §1, §2, §3, §4, §5, §6, §7, §8

The subject of another assay is T98G. Nature of the assay: 7 days treatment combination assay in glioblastoma cell lines (Hoeschst positive nuclei count). To be noted: Homo sapiens, 168 h, Adult GBM. Here is the method:
(§9) The assay was carried out in the following glioblastoma cell lines: • U87 • U87 R132H • T98G • SJ-G2 ctrl • SJ-G2 IDH using AZD6738 and AZD9574
(§10) The cells were seeded the day before drug treatment in 150 μl per well of 96-well plate. For SJ-G2 cells, the plates were coated with poly-Lysine solution for 15 minutes, washed twice with sterile water and dried for 1 hour.
(§11) The seeding numbers were (cells per well): U87-500; T98G-500; SJ-G2 ctrl-1000; SJ-G2 IDH.
(§12) The compounds were added via a drug dispenser according to the following scheme:
(§13) after 7 Days: • (a) for SJ-G2, 75 μl Cell Titer Glow 2.0 solution (Promega) was added and incubated for 15 minutes at 37° C. The cells were then read using a plate reader. • (b) for U87 and T98G, 75 μl of 37% formaldehyde was added and fixed for 20 minutes at room temperature. This was then washed twice with PBS, followed by Hoeschst staining for 1 hour at room temperature (Hoeschst 1:10000 in PBS). This was then washed twice in PBS and the plates sealed. The plates were then imaged on Cell Insight with 10× magnification at the 25 position. Hoeschst positive nuclei were identified as objects, and cell survival was analysed by counting objects (Hoeschst positive nuclei) with the corresponding settings for U87 or T98G.
(§14) An analysis of drug synergy was then carried out to yield a HSA score

The next assay relates to U87 IDH WT. Described as above. To be noted: 168 h, Adult GBM. Here is the method:
as §9, §10, §11, §12, §13, §14

The next assay relates to U87 IDHm. The description is as above. Conditions: 168 h, Adult GBM. Here is the method:
as §9, §10, §11, §12, §13, §14

A further assay concerns SJ-G2 IDHm. As to the kind of experiment: 7 days treatment combination assay in glioblastoma cell lines (Cell Titer Glow 2.0). Conditions: 168 h, paediatric GBM. Here is the method:
as §9, §10, §11, §12, §13, §14
A general note: Cellular ATP, detected with luciferase, serves as a proxy for viable cell number.

The test system of the next assay is SJ-G2 WT. Described as above. Conditions: 168 h, paediatric GBM. Here is the method:
as §9, §10, §11, §12, §13, §14

Read-outs that look alike come from different tables or passages of the source.

In the case of `C[C@@H]1COCCN1c1cc(C2([S@](C)(=N)=O)CC2)nc(-c2ccnc3[nH]ccc23)n1` [AZD6738, 4-{4-[(3R)-3-Methylmorpholin-4-yl]-6-[1-((R)—S-methylsulfonimidoyl)cyclopropyl]pyrimidin-2-yl}-1H-pyrrolo[2,3-b]-pyridine], the AC50 (in general, the midpoint of the concentration-response curve, whichever way the signal moves) with A549 is 3110 nM; in the assay with CAL-120, 1180 nM; in the assay with DMS53 it was 2180 nM; with EFM-19 it was 14300 nM; in the assay with HCC1569, 957 nM; in the assay on MCF7 F100-16, 1730 nM. Also, the AC50 with MDA-MB-468 was determined as 2310 nM; in the assay on NCI-H1373, 1240 nM; with NCI-H1395 (Homo sapiens, NCI-H1395, NCI-H1395 lung), 3310 nM; in the assay with NCI-H1395 (NCI-H1395 lung), 2900 nM; in the assay on NCI-H2009, 1020 nM; in the assay on NCI-H2291, 1120 nM. Moreover, the AC50 with NCI-H23 worked out at 221 nM; in the assay on NCI-H522, 5650 nM; with SUM52PE, 6510 nM. Also, the IC50 (usually the concentration needed to halve the response being measured) is 213 nM with T98G; 649 nM in the assay with U87 IDH WT; 766 nM with U87 IDHm; 308 nM in the assay with SJ-G2 IDHm; 160 nM in the assay with SJ-G2 WT.
